Values quoted from earlier work in US20110105488A1, “SUBSTITUTED PYRROLIDINE AND PIPERIDINE COMPOUNDS, DERIVATIVES THEREOF, AND METHODS FOR TREATING PAIN” (Chlorion Pharma, Inc., priority 2008, published 2011).

Tests used:
patients = settings: human, in vivo
[1] = test system: patients with post-herpetic neuralgia
clinical trial subjects = settings: review of multiple clinical studies

SMILES: NC(=O)N1c2ccccc2C=Cc2ccccc21 [carbamazepine]
- adverse effects evoked (patients): various sensory deficits
- patients with rash and leucopenia (patients): ~10%

SMILES: NCC1(CC(=O)O)CCCCC1 [gabapentin]
- mean endpoint pain score ([1]; 8-week trials, mean baseline 6.3): 4.2
- decrease in pain ([1]; two placebo-controlled, parallel-group trials of 8-weeks duration): ~33%

SMILES: CC(C)C[C@H](CN)CC(=O)O [pregabalin]
- adverse effects evoked (clinical trial subjects): significant somnolence, vertigo, and headache
